pIC50: −log10 of the molar value. Bounds are passed on as bounds.

For assay [1], the target named is CREBBP bromodomain (His-CREBBP(1081-1197)) (Homo sapiens (Human), UniProt Q92793). Description: AlphaScreen in-vitro binding assay for CREBBP. Particulars: AlphaScreen, acetyl-histone H4 peptide; read-out: CREBBP IC50. How it is done: AlphaScreen In-Vitro Binding Assay for CREBBP
In order to assess bromodomain selectivity, we set up a binding assay using the bromodomain encoded by the CREBBP gene. […] Reactions were incubated at 30° C. for 35 minutes. Subsequently 4.5 μl per well detection mix (50 mM HEPES, pH 7.5, 0.005% Tween20, 0.02% BSA, 150 mM NaCl, 45 μg/ml Ni-chelate acceptor beads, 45 μg/ml streptavidin-donor beads) (Perkin Elmer)) were added. After 60 minutes incubation at room temperature, plates were measured in a Perkin Elmer EnVision multilabel reader. IC50 values were determined from percent inhibition values at different compound concentrations by non-linear regression analysis.
(§1) Preparation of Compound Dilutions
(§2) Test compounds were dissolved in DMSO (10 mM) and transferred into 1.4 mL flat bottom or V-shaped Matrix tubes carrying a unique 2D matrix. The stock solutions were stored at […] if not used immediately. For the test procedure the vials were defrosted and identified by a scanner whereby a working sheet was generated that guided the subsequent working steps. Compound dilutions were made in 96 well plates. This format enabled the assay of maximally 40 individual test compounds at 8 concentrations (single points) including 4 reference compounds, if desired (known BET inhibitors from the prior art, for this and other assays of the type disclosed herein). The dilution protocol included the production of “pre-dilution plates”, “master plates” and “assay plates”.
(§3) Pre-dilution plates: 96 polypropylene well plates were used as pre-dilution plates. A total of 4 pre-dilution plates were prepared including 10 test compounds each on the plate positions A1-A10, one standard compound at A11 and one DMSO control at A12. All dilution steps were done on a HamiltonSTAR robot.
(§4) These plates were used directly for the assay which was performed in a total volume of 13.55 μL.
On the technique in general: In Alpha technology, singlet oxygen from a donor bead excites a nearby acceptor bead.

Assay [2] concerns the target BRD4 (His-Brd4(44-477)) (Homo sapiens (Human), UniProt O60885). In words: TR-FRET in-vitro binding assay for BRD4. To be noted: acetyl-histone H4 peptide. As to the method: (§5) TR-FRET In-Vitro Binding Assays for BRD2, BRD3, and BRD4:
(§6) All assays were performed in 384 well microtiter plates. Each assay plate contained 8-point serial dilutions for 40 test compounds, plus 16 high- and 16 low controls. Liquid handling and incubation steps were done on an Innovadyne Nanodrop Express equipped with a robotic arm (Thermo CatX, Perkin Elmer/Caliper Twister II) and an incubator (Liconic STX40, Thermo Cytomat 2C450). The assay plates were prepared by addition of 50 nl per well of compound solution in 90% DMSO HummingBird nanodispenser (Zinsser Analytic). The assay was started by stepwise addition of 4.5 μl per well of bromo domain protein (50 mM HEPES, pH 7.5, 0.005% Tween20, 0.1% BSA, 50 mM NaCl, 45 nM His-Brd2(60-472) or 45 nM His-Brd3(20-477) or 45 nM His-Brd4(44-477) all proteins produced in-house) and 4.5 μl per well of peptide solution (50 mM HEPES, pH 7.5, 0.005% Tween20, 0.1% BSA, 50 mM NaCl, 60 nM acetyl-histone H4 (AcK 5, 8, 12, 16) (Biosyntan GmbH)). Reactions were incubated at 30° C. for 35 minutes. […] After 35 minutes incubation at 30° C., plates were measured in a Perkin Elmer EnVision multilabel reader. Concentrations causing 50% inhibition (IC50 values) were determined from percent inhibition values at different compound concentrations by non-linear regression analysis.
as §1, §2, §3
(§7) Master plates: 30 μL of individual compound dilutions including standard compound and controls of the 4 “pre-dilution plates” were transferred into a 384 “master plate” including the following concentrations 10000, 3003, 1000, 300, 100, 30, 10 and 3 μM, respectively in 90% of DMSO.
(§8) Assay plates: Identical “assay plates” were then prepared by pipetting 50 nL each of compound dilutions of the “master plates” into 384-well “assay plates” by means of a HummingBird 384-channel dispenser. These plates were used directly for the assay which was performed in a total volume of 13.55 μL. This led to a final compound concentration of 37, 11, 3.7, 1.1, 0.37, 0.11, 0.037 and 0.011 μM and a final DMSO concentration of 0.37% in the assay.

Assay [3] concerns the target BRD3 (His-Brd3(20-477)) (Homo sapiens (Human), UniProt Q15059). In words: TR-FRET in-vitro binding assay for BRD3. Particulars: acetyl-histone H4 peptide. How it is done: as §5
All assays were performed in 384 well microtiter plates. Each assay plate contained 8-point serial dilutions for 40 test compounds, plus 16 high- and 16 low controls. Liquid handling and incubation steps were done on an Innovadyne Nanodrop Express equipped with a robotic arm (Thermo CatX, Perkin Elmer/Caliper Twister II) and an incubator (Liconic STX40, Thermo Cytomat 2C450). The assay plates were prepared by addition of 50 nl per well of compound solution in 90% DMSO HummingBird nanodispenser (Zinsser Analytic). […] Reactions were incubated at 30° C. for 35 minutes. […] After 35 minutes incubation at 30° C., plates were measured in a Perkin Elmer EnVision multilabel reader.
as §1, §2, §3, §4
Background: In TR-FRET formats the signal depends on donor and acceptor labels being close together.

Assay [4] concerns MV-4-11 cells. Description: Cell growth inhibition assay (CellTiter-Glo), MV-4-11. Type of assay: cell-based, human. To be noted: MV-4-11, 4 days; for GI50: Homo sapiens, MV4-11, 96 h, half-maximal growth inhibition; for MV-4-11 TGI: total growth inhibition. As to the method:
(§9) Cell Growth Inhibition Assay
(§10) The human leukemia cell lines MV-4-11, THP-1 and K-562 were employed to characterize the effect of BET inhibitors on cellular proliferation and viability. Cells were obtained from the American Type Culture Collection (ATCC) and cultured at 37° C. in a humidified 5% CO2 incubator in the following media: MV-4-11: DMEM high glucose (Animed #1-26F01-I), 10% FCS (Animed #2-01F26-I), 4 mM L-Glutamine (Animed #5-10K50), 1 mM Sodium Pyruvate (Animed #G03625P), lx Penicillin-Streptomycin (Animed #F12478P); K-562: Iscove's MEM (Animed #1-28F16-I), 10% FCS (Animed #2-01F26-I), 4 mM L-Glutamine (Animed #5-10K50), 1× Penicillin-Streptomycin (Animed #F12478P); THP-1: RPMI-1640 (Animed #1-41F01-I), 10% FCS (Animed #2-01F26-I), 2 mM L-Glutamine (Animed #5-10K50), 10 mM HEPES (Animed #5-31F100), 1 mM Sodium Pyruvate (Animed #G03625P), 1× Penicillin-Streptomycin (Animed #F12478P). The AML lines MV-4-11 and THP-1 are very sensitive to BET inhibitors and show massive cell death upon BET inhibition (Zuber et al., Nature, 478 (2011), 524-8). Compound-mediated suppression of cell proliferation/viability was assessed by quantification of cellular ATP levels using the CellTiter-Glo (CTG) reagent (Promega). Briefly, cells were seeded in 20 μl fresh medium into 384-well plates, followed by addition of 5 μl medium containing compound dilutions at 5-fold their final intended concentration. Dose-response effects were assessed by 3-fold serial dilutions of the test compound, starting at 10 μM. Following incubation of the cells for 4 days at 37° C. and 5% CO2, the effect of inhibitors on cell viability was quantified following addition of 20 μl CTG and luminescence quantification (integration time: 100 ms) as per vendor manual, using a correspondingly equipped Tecan M200 multi-mode platereader (TECAN, Switzerland). For data analysis, the assay background value determined in wells containing medium, but no cells, was subtracted from all data points. To enable differentiation of cytotoxic from cytostatic compounds, the number of viable cells is assessed relative to that observed at the time of compound addition using a separate cell plate (day 0). The effect of a particular test compound concentration on cell proliferation/viability is expressed as percentage of the background- and day 0-corrected luminescence reading obtained for cells treated with vehicle only (DMSO, 0.1% final concentration), which is set as 100%, whereas that luminescence reading for wells containing medium is set as −100%. Compound concentrations leading to half-maximal (IC50) and total growth inhibition (TGI) were determined using standard four parameter curve fitting.
For orientation: Cellular ATP, detected with luciferase, serves as a proxy for viable cell number.

Assay [5] has as its system K-562 cells. In words: Cell growth inhibition assay (CellTiter-Glo), K-562. The assay is classed as cell-based, human. To be noted: K-562, 4 days; for GI50: Homo sapiens, K562, 96 h, half-maximal growth inhibition; for K-562 TGI: total growth inhibition. As to the method: as §9, §10
In assay [6] the test system is THP-1 cells. In words: Cell growth inhibition assay (CellTiter-Glo), THP-1. The assay is classed as cell-based, human. Particulars: THP-1, 4 days; for GI50: Homo sapiens, 96 h, half-maximal growth inhibition; for THP-1 TGI: total growth inhibition. As to the method:
as §9, §10

Assay [7] concerns the target BRD2 (His-Brd2(60-472)) (Homo sapiens (Human), UniProt P25440). Description: TR-FRET in-vitro binding assay for BRD2. Particulars: acetyl-histone H4 peptide. How it is done:
as §5, §6, §1, §2, §3, §7, §8

Sequence of CREBBP bromodomain (His-CREBBP(1081-1197)) (Q92793 1081-1197): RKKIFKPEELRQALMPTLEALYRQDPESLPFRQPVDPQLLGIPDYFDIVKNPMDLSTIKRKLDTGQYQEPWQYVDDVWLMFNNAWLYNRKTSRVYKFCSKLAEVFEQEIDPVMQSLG
Sequence of BRD2 (His-Brd2(60-472)) (P25440 60-472): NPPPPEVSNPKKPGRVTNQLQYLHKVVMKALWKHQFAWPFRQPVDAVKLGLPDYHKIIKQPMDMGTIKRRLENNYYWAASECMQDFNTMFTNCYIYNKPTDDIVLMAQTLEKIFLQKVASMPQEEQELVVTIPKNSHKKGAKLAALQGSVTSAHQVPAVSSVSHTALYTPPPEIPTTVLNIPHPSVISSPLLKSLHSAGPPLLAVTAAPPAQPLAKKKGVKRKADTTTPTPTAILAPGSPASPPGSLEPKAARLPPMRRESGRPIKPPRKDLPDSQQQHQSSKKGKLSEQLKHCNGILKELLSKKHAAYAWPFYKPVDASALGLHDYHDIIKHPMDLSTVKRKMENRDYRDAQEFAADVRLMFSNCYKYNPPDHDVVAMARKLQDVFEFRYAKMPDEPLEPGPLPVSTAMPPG
Sequence of BRD3 (His-Brd3(20-477)) (Q15059 20-477): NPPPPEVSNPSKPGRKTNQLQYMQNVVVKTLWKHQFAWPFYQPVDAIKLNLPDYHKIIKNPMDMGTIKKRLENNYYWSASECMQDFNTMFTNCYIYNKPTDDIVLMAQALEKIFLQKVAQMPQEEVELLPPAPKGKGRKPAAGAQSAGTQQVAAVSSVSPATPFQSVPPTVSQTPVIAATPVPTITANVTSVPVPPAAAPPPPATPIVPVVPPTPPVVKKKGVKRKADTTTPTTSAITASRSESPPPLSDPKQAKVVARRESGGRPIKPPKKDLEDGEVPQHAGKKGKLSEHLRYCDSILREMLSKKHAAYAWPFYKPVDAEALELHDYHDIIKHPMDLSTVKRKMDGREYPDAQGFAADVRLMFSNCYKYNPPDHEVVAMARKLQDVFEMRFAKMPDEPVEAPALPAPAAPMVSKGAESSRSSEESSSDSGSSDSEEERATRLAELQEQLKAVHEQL

Take `Cc1cc(N2C(=O)c3c(C4CC4)nn(-c4ccnn4C)c3C2c2ccc(Cl)cc2)cc2c1nnn2C` (centres unmarked) [Example 21, 6-(4-chlorophenyl)-3-cyclopropyl-5-(1,4-dimethyl-1H-benzo[d][1,2,3]triazol-6-yl)-1-(1-methyl-1H-pyrazol-5-yl)-5,6-dihydropyrrolo[3,4-c]pyrazol-4(1H)-one]: the pIC50 is 5.18 in assay [1], 7.77 in assay [2], 7.64 in assay [3] and 7.51 in assay [7]. The concentration for 50% growth inhibition (GI50) in assay [4] was 13.5 nM; in assay [5] it was 78.8 nM; in assay [6] it was 22.3 nM. In addition, in assay [4], the “MV-4-11 TGI” value was 27.25 nM. For the same compound, the “K-562 TGI” value in assay [5] is more than 10000 nM. Further, the “THP-1 TGI” value in assay [6] came to 44.45 nM.
With `COc1cc(N2C(=O)c3c(C4CC4)nn(C)c3C2c2ccc(Cl)cc2)cn2c(C(F)F)nnc12` (centres unmarked) [Example 22, 6-(4-chlorophenyl)-3-cyclopropyl-5-(3-(difluoromethyl)-8-methoxy-[1,2,4]triazolo-[4,3-a]pyridin-6-yl)-1-methyl-5,6-dihydropyrrolo[3,4-c]pyrazol-4(1H)-one], the pIC50 is less than 4.43 in assay [1], 6.89 in assay [2], 6.64 in assay [3] and 6.68 in assay [7]. For the same compound, the 50% growth inhibitory concentration (GI50) in assay [4] amounted to 266 nM; in assay [5] it was 1180 nM; in assay [6], 814 nM. Besides, the “MV-4-11 TGI” value in assay [4] amounted to 574 nM. In assay [5], the “K-562 TGI” value was more than 10000 nM. The “THP-1 TGI” value in assay [6] turned out to be 1330 nM.
For `Cc1cc(N2C(=O)c3c(C4CC4)nn(C)c3[C@H]2c2ccc(Cl)cc2)nn2c(C)nnc12` [Example 24, (R)-6-(4-chlorophenyl)-3-cyclopropyl-5-(3,8-dimethyl-[1,2,4]triazolo[4,3-b]pyridazin-6-yl)-1-methyl-5,6-dihydropyrrolo[3,4-c]pyrazol-4(1H)-one], the negative-log IC50 (pIC50) was 4.72 in assay [1], more than 7.96 in assay [2], more than 7.96 in assay [3] and more than 7.96 in assay [7]. Further, the concentration for 50% growth inhibition (GI50) in assay [4] was 0.643 nM; in assay [5] it was 10.4 nM; in assay [6], 1.88 nM. Besides, the “MV-4-11 TGI” value in assay [4] is 1.57 nM. Moreover, the “K-562 TGI” value in assay [5] was more than 10000 nM. The “THP-1 TGI” value in assay [6] is 4.91 nM.
`Cc1cc(N2C(=O)c3c(C4CC4)nn(-c4ccnn4C)c3C2c2ccc(Cl)cc2)nn2c(C)nnc12` (centres unmarked) [Example 25, 6-(4-chlorophenyl)-3-cyclopropyl-5-(3,8-dimethyl-[1,2,4]triazolo[4,3-b]pyridazin-6-yl)-1-(1-methyl-1H-pyrazol-5-yl)-5,6-dihydropyrrolo[3,4-c]pyrazol-4(1H)-one]: the negative-log IC50 (pIC50) in assay [1] is less than 4.43; in assay [2], 7.60; in assay [3], 7.62; in assay [7], 7.49. Also, the GI50 worked out at 6.65 nM in assay [4], 91.6 nM in assay [5] and 20.1 nM in assay [6]. Further, the “MV-4-11 TGI” value in assay [4] was found to be 15.9 nM. Also, in assay [5], the “K-562 TGI” value is more than 10000 nM. Moreover, in assay [6], the “THP-1 TGI” value came to 44.4 nM.
As to `Cc1nnc2c(N)cc(N3C(=O)c4c(C5CC5)nn(C)c4C3c3ccc(Cl)cc3)cn12` (centres unmarked) [Example 28, 5-(8-amino-3-methyl-[1,2,4]triazolo[4,3-a]pyridin-6-yl)-6-(4-chlorophenyl)-3-cyclopropyl-1-methyl-5,6-dihydropyrrolo[3,4-c]pyrazol-4(1H)-one], the negative-log IC50 (pIC50) in assay [1] was 5.43; in assay [2], 7.68; in assay [3] it was 7.47; in assay [7], 7.39. Further, the figures for the GI50 in assay [4], in assay [5] and in assay [6] were 1.56 nM, 9.66 nM and 2.83 nM, respectively. Besides, the “MV-4-11 TGI” value in assay [4] stood at 3.515 nM. For the same compound, in assay [5], the “K-562 TGI” value was more than 10000 nM. For the same compound, the “THP-1 TGI” value in assay [6] was determined as 9.04 nM.

By pIC50 is commonly meant the negative decadic logarithm of the IC50, by convention in mol/L. For orientation: GI50 means the concentration that inhibits growth by half.

The record behind these values is patent US9624247B2, “Pyrazolo-pyrrolidin-4-one derivatives as bet inhibitors and their use in the treatment of disease” (NOVARTIS AG, priority 2013, dated 2017).
